Each block holds one molecule with its values, some of them ahead of it. Non-standard residues stand in square brackets, D forms with d. Residues, ends and D or L forms follow the SMILES beside them. No end group written: not given here. *: point of attachment. Phe(4-Cl) = N[C@@H](Cc1ccc(Cl)cc1)C(=O)O; Agmatine = N=C(N)NCCCCN*; Isobutyryl = CC(C)C(=O)*; Nle = CCCC[C@H](N)C(=O)O; Abu = CC[C@H](N)C(=O)O; X1 = O=C(CCBr)*
How the values were obtained:
[1] = molecular target: T1, rat pituitary GH-RH receptors (Rattus norvegicus, UniProt Q02644); experiment: GH-RH binding assay, competitive binding on rat anterior pituitary membrane homogenates; details: for Ki: competition with labelled [His1,Nle27]hGH-RH(1-32)NH2; for R.A. (relative affinity compared to the Standard antagonist): ratio of Ki values, Standard = 1
T1 construct: from tissue; host or cells: rat anterior pituitary (male Sprague-Dawley), crude membranes
T1 sequence (Q02644 23-464): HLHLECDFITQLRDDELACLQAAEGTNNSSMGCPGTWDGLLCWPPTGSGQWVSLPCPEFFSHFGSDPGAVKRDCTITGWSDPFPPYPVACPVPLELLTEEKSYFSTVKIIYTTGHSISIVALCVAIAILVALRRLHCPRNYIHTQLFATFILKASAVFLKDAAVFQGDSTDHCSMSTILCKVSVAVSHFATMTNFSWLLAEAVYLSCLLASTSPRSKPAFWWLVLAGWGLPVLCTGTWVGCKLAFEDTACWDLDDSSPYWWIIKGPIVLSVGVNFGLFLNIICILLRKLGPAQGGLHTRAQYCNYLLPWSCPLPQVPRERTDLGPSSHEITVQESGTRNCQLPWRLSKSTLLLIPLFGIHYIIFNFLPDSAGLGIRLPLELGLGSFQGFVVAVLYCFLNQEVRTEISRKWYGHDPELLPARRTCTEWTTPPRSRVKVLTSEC
Protocol: GH-RH Binding Assay. A sensitive radioreceptor binding assay was developed to determine the binding characteristics of the antagonists of GH-RH (G. Halmos, A. V. Schally et al., Receptor 3, 87-97, 1993), hereby incorporated by reference. The assay is based on binding of labelled [His^1,Nle^27 ]hGH-RH(1-32)NH2 to rat anterior pituitary membrane homogenates. Iodinated derivatives of [His^1,Nle^27 ]hGH-RH(1-32)NH2 are prepared by the chloramine-T method (F. C. Greenwood et al., Biochemistry 89:114-123, 1963), hereby incorporated by reference. Pituitaries from male Sprague-Dawley rats (250-300 g) are used to prepare crude membranes. For saturation binding analyses, membrane homogenates are incubated with at least 6 concentrations of [His^1,^25 I-Tyr^10,Nle^27 ]hGH-RH(1-32)NH2, ranging from 0.005 to 0.35 nM in the presence or absence of excess unlabelled peptide (1 μM). The pellet is counted for radioactivity in a y-counter. The affinities of the antagonist peptides tested to rat pituitary GH-RH receptors are determined in competitive binding experiments. The final binding affinities are estimated by Ki (dissociation constant of the inhibitor-receptor complex) and are determined by the Ligand PC computer program of Munson and Rodbard as modified by McPherson. Relative affinities compared to [Ac-Tyr^1,D-Arg^2 ]hGH-RH(1-29)NH2, the Standard antagonist, are calculated as the ratio of Ki of the tested GH-RH antagonist to the Ki of the Standard antagonist.

[2] = tested on: hGH-RH(1-29)NH2 induced GH release; experiment: Superfused rat pituitary system: inhibition of hGH-RH(1-29)NH2 induced GH release; format: cell-based; details: for Inhibition of GH release (%) 0 min: 0 min response; for Inhibition of GH release (%) 30 min: 30 min response; for Inhibition of GH release (%) 60 min: 60 min response
Protocol: Superfused Rat Pituitary System. The analogues were tested in vitro in a test described earlier (S. Vigh and A. V. Schally, Peptides 5:241-[…], 1984) with modification ([…] and […]. 90:2146-2149, 1993). Briefly, the cells are preincubated with peptides for 9 minutes (3 mL) at various concentrations. Immediately after the incubation, 1 nM hGH-RH(1-29)NH2 is administered for 3 minutes (1 mL) [0 minute response]. To check the duration of the antagonistic effect of the analogue, 1 nM hGH-RH(1-29)NH2 is applied 30, 60, 90, and 120 minutes later for 3 minutes [30, 60, 90, 120 min responses]. Net integral values of the GH responses are evaluated. GH responses are compared to and expressed as percent of the original GH response induced by 1 nM GH-RH(1-29)NH2. The effect of the new antagonists are compared to that of [Ac-[…] ]hGH-RH(1-29)NH2, the "Standard antagonist". Growth Hormone Radio-immunoassay. Rat GH levels in aliquots of undiluted and diluted superfusion samples were measured by double-antibody radioimmunoassay using materials supplied by the National Hormone and Pituitary Program, Baltimore, Md. The results of RIA were analyzed with a computer program developed in our institute (V. Csernus and A. V. Schally, Harwood Academic (Greenstein, B. C. ed., London, pp. 71-109, 1991), hereby incorporated by reference. Inter-assay variation was less than 15% and intra-assay variation was less than 10%.

[3] = tested on: hGH-RH(1-29)NH2 induced GH release; experiment: In vivo test: serum GH levels in rats pretreated with GH-RH antagonists before hGH-RH(1-29)NH2; set-up: species or system Sprague-Dawley rats
Protocol: In Vivo Tests. Adult male Sprague-Dawley rats are anesthetized with pentobarbital (6 mg/100 g b.w., i.p.). Blood samples are taken from the jugular vein 30 min after the injection of pentobarbital. One group of 7 animals receives hGH-RH(1-29)NH2 as control. Other groups of rats are injected with [Ac-Tyr^1,D-Arg^2 ]hGH-RH(1-29)NH2 as Standard antagonist, or with one of the antagonist peptide 30 seconds prior to hGH-RH(1-29)NH2, which is administered at dose of 2-3 μg/kg b.w. Blood samples are taken from the jugular vein 5 and 15 min after the injection of antagonists. GH levels are measured by RIA. Potencies of the antagonists are calculated by the factorial analysis of Bliss and Marks with 95% confidence limits and are based on the doses of 100 and 400 μg/kg b.w. of the Standard antagonist and 20 and 80 μg/kg b.w. of the antagonists tested. Statistical significance was assessed by Duncan's new multiple range test.

GH release [4] = details: cited from earlier work; for bioactivity (in words): compared with hGH-RH(1-29)NH2
GH release [5] = details: cited from earlier work

Ki [1]: 0.73 ± 0.05 nM
Molecule: CCCC[C@H](NC(=O)[C@@H](NC(=O)[C@H](CC(=O)O)NC(=O)[C@H](CCC(N)=O)NC(=O)[C@H](CC(C)C)NC(=O)[C@H](CC(C)C)NC(=O)[C@H](CCCCN)NC(=O)[C@H](CCCNC(=N)N)NC(=O)[C@H](C)NC(=O)[C@H](CO)NC(=O)[C@H](CC(C)C)NC(=O)[C@H](CCC(N)=O)NC(=O)[C@H](CC)NC(=O)[C@H](CC(C)C)NC(=O)[C@@H](NC(=O)[C@H](C)NC(=O)[C@H](CCCNC(=N)N)NC(=O)[C@H](Cc1ccc(O)cc1)NC(=O)[C@H](CO)NC(=O)[C@H](CC(N)=O)NC(=O)[C@@H](NC(=O)[C@H](Cc1ccc(Cl)cc1)NC(=O)[C@@H](NC(=O)[C@H](C)NC(=O)[C@H](CC(=O)O)NC(=O)[C@@H](CCCNC(=N)N)NC(=O)[C@H](Cc1ccc(O)cc1)NC(=O)C(C)C)[C@@H](C)CC)[C@@H](C)O)C(C)C)[C@@H](C)CC)C(=O)N[C@@H](CO)C(=O)N[C@@H](CCCNC(=N)N)C(N)=O [Peptide 15, [Ibu^0,D-Arg^2,Phe(pCl)^6,Ala^12,Abu^15,Nle^27]hGH-RH(1-29)NH2] (Isobutyryl-Y[dR]DAI[Phe(4-Cl)]TNSYRAVL[Abu]QLSARKLLQDI[Nle]SR-NH2)

Ki [1]: 0.12 ± 0.04 nM
Molecule: CCCC[C@H](NC(=O)[C@@H](NC(=O)[C@H](CC(=O)O)NC(=O)[C@H](CCC(N)=O)NC(=O)[C@H](CC(C)C)NC(=O)[C@H](CC(C)C)NC(=O)[C@H](CCCCN)NC(=O)[C@H](CCCNC(=N)N)NC(=O)[C@H](C)NC(=O)[C@H](CO)NC(=O)[C@H](CC(C)C)NC(=O)[C@H](CCC(N)=O)NC(=O)[C@H](CC)NC(=O)[C@H](CC(C)C)NC(=O)[C@@H](NC(=O)[C@H](CCCCN)NC(=O)[C@H](CCCNC(=N)N)NC(=O)[C@H](Cc1ccc(O)cc1)NC(=O)[C@H](CO)NC(=O)[C@H](CC(N)=O)NC(=O)[C@@H](NC(=O)[C@H](Cc1ccc(Cl)cc1)NC(=O)[C@@H](NC(=O)[C@H](C)NC(=O)[C@H](CC(=O)O)NC(=O)[C@@H](CCCNC(=N)N)NC(=O)[C@H](Cc1ccc(O)cc1)NC(=O)C(C)C)[C@@H](C)CC)[C@@H](C)O)C(C)C)[C@@H](C)CC)C(=O)N[C@@H](CO)C(=O)NCCCCNC(=N)N [Peptide 19, Ibu^0,D-Arg^2, Phe(pCl)^6,Abu^15,Nle^27]hGH-RH(1-28)Agm] (Isobutyryl-Y[dR]DAI[Phe(4-Cl)]TNSYRKVL[Abu]QLSARKLLQDI[Nle]S-Agmatine)

Molecule: CCCC[C@H](NC(=O)[C@@H](NC(=O)[C@H](CC(=O)O)NC(=O)[C@H](CCC(N)=O)NC(=O)[C@H](CC(C)C)NC(=O)[C@H](CC(C)C)NC(=O)[C@H](CCCCN)NC(=O)[C@H](CCCNC(=N)N)NC(=O)[C@H](C)NC(=O)[C@H](CO)NC(=O)[C@H](CC(C)C)NC(=O)[C@H](CCC(N)=O)NC(=O)[C@H](CC)NC(=O)[C@H](CC(C)C)NC(=O)[C@@H](NC(=O)[C@H](CCCCN)NC(=O)[C@H](CCCNC(=N)N)NC(=O)[C@H](Cc1ccc(O)cc1)NC(=O)[C@H](CO)NC(=O)[C@H](CC(N)=O)NC(=O)[C@@H](NC(=O)[C@H](Cc1ccc(Cl)cc1)NC(=O)[C@@H](NC(=O)[C@H](C)NC(=O)[C@H](CC(=O)O)NC(=O)[C@@H](CCCNC(=N)N)NC(=O)[C@H](Cc1ccc(O)cc1)NC(=O)CCBr)[C@@H](C)CC)[C@@H](C)O)C(C)C)[C@@H](C)CC)C(=O)N[C@@H](CO)C(=O)NCCCCNC(=N)N [Peptide 20] (X1-Y[dR]DAI[Phe(4-Cl)]TNSYRKVL[Abu]QLSARKLLQDI[Nle]S-Agmatine; N-terminus assumed)
Inhibition of GH release (%) 0 min ([2]; dose 10 nM): 56.2% | Inhibition of GH release (%) 30 min ([2]; dose 10 nM): 35.2% | Inhibition of GH release (%) 60 min ([2]; dose 10 nM): 51.8% | Inhibition of GH release (%) 0 min ([2]; dose 30 nM): 58% | Inhibition of GH release (%) 30 min ([2]; dose 30 nM): 19.3% | Inhibition of GH release (%) 60 min ([2]; dose 30 nM): 35.3% | Inhibition of GH release (%) 0 min ([2]; dose 100 nM): 86.4% | Inhibition of GH release (%) 30 min ([2]; dose 100 nM): 75% | Inhibition of GH release (%) 60 min ([2]; dose 100 nM): 62.8% | R.A. (relative affinity compared to the Standard antagonist) [1]: 3.27

Ki [1]: 3.22 ± 0.12 nM | R.A. (relative affinity compared to the Standard antagonist) [1]: 1
Molecule: CC[C@H](C)[C@H](NC(=O)[C@H](C)NC(=O)[C@H](CC(=O)O)NC(=O)[C@@H](CCCNC(=N)N)NC(=O)[C@H](Cc1ccc(O)cc1)NC(C)=O)C(=O)N[C@@H](Cc1ccccc1)C(=O)N[C@H](C(=O)N[C@@H](CC(N)=O)C(=O)N[C@@H](CO)C(=O)N[C@@H](Cc1ccc(O)cc1)C(=O)N[C@@H](CCCNC(=N)N)C(=O)N[C@@H](CCCCN)C(=O)N[C@H](C(=O)N[C@@H](CC(C)C)C(=O)NCC(=O)N[C@@H](CCC(N)=O)C(=O)N[C@@H](CC(C)C)C(=O)N[C@@H](CO)C(=O)N[C@@H](C)C(=O)N[C@@H](CCCNC(=N)N)C(=O)N[C@@H](CCCCN)C(=O)N[C@@H](CC(C)C)C(=O)N[C@@H](CC(C)C)C(=O)N[C@@H](CCC(N)=O)C(=O)N[C@@H](CC(=O)O)C(=O)N[C@H](C(=O)N[C@@H](CCSC)C(=O)N[C@@H](CO)C(=O)N[C@@H](CCCNC(=N)N)C(N)=O)[C@@H](C)CC)C(C)C)[C@@H](C)O [Standard antagonist, [Ac-Tyr^1, D-Arg^2]hGH-RH(1-29)NH2, reference compound] (Ac-Y[dR]DAIFTNSYRKVLGQLSARKLLQDIMSR-NH2)
Inhibition of GH release (%) 0 min ([2]; dose 100 nM): 62.1% | Inhibition of GH release (%) 30 min ([2]; dose 100 nM): 2.5% | Inhibition of GH release (%) 60 min ([2]; dose 100 nM): 19% | GH Levels ([3]; antagonist 100.0 μg/kg intravenously before GH-RH(1-29)NH2): 738.3 ± 34.7 ng/mL | GH Levels ([3]; antagonist 400.0 μg/kg intravenously before GH-RH(1-29)NH2): 439.7 ± 47.3 ng/mL

Molecule: GH-RH(1-27)NH2 (YADAIFTNSYRKVLGQLSARKLLQDIM-NH2; UniProt P01286 32-58, looked up, fragment) [shorter GH-RH analogue]
bioactivity (in words) (GH release [4]): substantially lower bioactivity

Molecule: GH-RH(1-28)NH2 (YADAIFTNSYRKVLGQLSARKLLQDIMS-NH2; UniProt P01286 32-59, looked up, fragment) [shorter GH-RH analogue]
bioactivity (in words) (GH release [4]): substantially lower bioactivity

Molecule: [Ac-Tyr^1 ]GH-RH (Ac-YADAIFTNSYRKVLGQLSARKLLQDIMSRQQGESNQERGARARL; ends and bridges not checked; UniProt P01286 32-75, looked up)
GH releasing activity relative to GH-RH (GH release [4]): 2-3%

Molecule: [AcTyr^1 ]hGH-RH(1-29)NH2
in vivo potency over that of GH-RH (GH release [5]): ten fold or more

Molecule: [D-Tyr^1 ]GH-RH
GH releasing activity relative to GH-RH (GH release [4]): 2-3%

Molecule: hGH-RH(2-44) (ADAIFTNSYRKVLGQLSARKLLQDIMSRQQGESNQERGARARL; ends and bridges not checked; UniProt P01286 33-75, looked up, fragment) [GH-RH without its N-terminus residue]
GH releasing activity relative to GH-RH (GH release [4]): 0.1%

Reference: US5550212A, “Analogues of hGH-RH(1-29)NH2 having antagonistic activity” (The Administrators of the Tulane Educational Fund, priority 1993, dated 1996)
